Series [1] in a line: Drug distribution in SCID mouse plasma at 1 mg/kg, po measured at 24 hrs by LC-MS/MS analysis. Type of series: ADME, organism-based.
Series [2] can be described thus: Plasma protein binding in human by LC-MS analysis. Format: ADME, cell-free. Conditions: read-out: PPB (converted).
Series [3] in a line: Toxicity in immune-competent Sprague-Dawley rat assessed as decrease in glucose level at 10 mg/kg, po administered twice a week for 5 weeks. Type of series: organism-based. To be noted: in vivo, 840 h.
Series [4] is described as follows: Drug distribution in SCID mouse liver at 1 mg/kg, po measured at 6 hrs by LC-MS/MS analysis. Format: ADME, organism-based. To be noted: read-out: Ct.
Series [5] is described as follows: Chemical stability of the compound assessed as parent compound remaining measured at 7 hrs. Format: physicochemical. To be noted: read-out: Stability.

Consider one molecule from ChEMBL document CHEMBL5543112, “Discovery of CBPD-268 as an Exceptionally Potent and Orally Efficacious CBP/p300 PROTAC Degrader Capable of Achieving Tumor Regression” (J Med Chem, 2024).

Molecule `CC(=O)N1CCc2c(c(N3CCCc4cc(-c5cnn(C)c5)c(C(F)F)cc43)nn2[C@H]2CC[C@H](CN3Cc4cc5c(cc4C3)C(=O)N(C3CCC(=O)NC3=O)C5=O)CC2)C1` (stereo not given in full) showed a concentration at 24 h in series [1] of 0.0033 µg/mL. The fraction unbound in series [2] was 0.009. For the same molecule, the Activity entry in series [3] was “Non-Toxic”. The concentration at 6 h in series [4] was found to be 0.301 µg/mL. Besides, in series [5], the remaining at 7 h was under 10%.
